{"source": "ChEMBL document CHEMBL4049411", "about": "“Rational Design, Synthesis, and Biological Evaluation of Heterocyclic Quinolones Targeting the Respiratory Chain of Mycobacterium tuberculosis” (J Med Chem, 2017)", "key": {"[1]": {"test_system": "Rattus norvegicus", "experiment": "Half life in Wistar rat assessed as 2-(4-(3,3-Difluoropyrrolidin-1-yl)phenyl)-5,7-difluoro-3-methylquinolin-4(1H)-one at 0.5 mg/kg, iv after 24 hrs by LC-MS/MS analysis", "type": "ADME, organism-based", "details": "in vivo"}, "[2]": {"test_system": "Rattus norvegicus", "experiment": "Clearance in Wistar rat assessed as 2-(4-(3,3-Difluoropyrrolidin-1-yl)phenyl)-5,7-difluoro-3-methylquinolin-4(1H)-one at 0.5 mg/kg, iv after 24 hrs by LC-MS/MS analysis", "type": "ADME, organism-based", "details": "in vivo"}, "[3]": {"test_system": "Rattus norvegicus", "experiment": "Volume of distribution in steady state in Wistar rat assessed as 2-(4-(3,3-Difluoropyrrolidin-1-yl)phenyl)-5,7-difluoro-3-methylquinolin-4(1H)-one at 0.5 mg/kg, iv after 24 hrs by LC-MS/MS analysis", "type": "ADME, organism-based", "details": "in vivo"}, "[4]": {"experiment": "Half life in Wistar rat at 10 mg/kg administered via oral gavage after 24 hrs by LC-MS/MS analysis", "type": "ADME, organism-based", "details": "in vivo"}, "[5]": {"experiment": "Cmax in Wistar rat at 10 mg/kg administered via oral gavage after 24 hrs by LC-MS/MS analysis", "type": "ADME, organism-based", "parameters": "dose 10 mg/kg, route oral", "details": "in vivo"}, "[6]": {"test_system": "Rattus norvegicus", "experiment": "AUC in Wistar rat assessed as 2-(4-(3,3-Difluoropyrrolidin-1-yl)phenyl)-5,7-difluoro-3-methylquinolin-4(1H)-one at 0.5 mg/kg, iv after 24 hrs by LC-MS/MS analysis", "type": "ADME, organism-based", "parameters": "time < 24 hr, dose 0.5 mg/kg, route intravenous", "details": "in vivo"}, "[7]": {"test_system": "Rattus norvegicus", "experiment": "Half life in Wistar rat assessed as 2-(4-(3,3-Difluoropyrrolidin-1-yl)phenyl)-5,7-difluoro-3-methylquinolin-4(1H)-one at 10 mg/kg administered via oral gavage after 24 hrs by LC-MS/MS analysis", "type": "ADME, organism-based", "details": "in vivo"}, "[8]": {"test_system": "Rattus norvegicus", "experiment": "Cmax in Wistar rat assessed as 2-(4-(3,3-Difluoropyrrolidin-1-yl)phenyl)-5,7-difluoro-3-methylquinolin-4(1H)-one at 10 mg/kg administered via oral gavage after 24 hrs by LC-MS/MS analysis", "type": "ADME, organism-based", "parameters": "dose 10 mg/kg, route oral", "details": "in vivo"}, "[9]": {"test_system": "Rattus norvegicus", "experiment": "AUC in Wistar rat assessed as 2-(4-(3,3-Difluoropyrrolidin-1-yl)phenyl)-5,7-difluoro-3-methylquinolin-4(1H)-one at 10 mg/kg administered via oral gavage after 24 hrs by LC-MS/MS analysis", "type": "ADME, organism-based", "parameters": "dose 10 mg/kg, time < 24 hr, route oral", "details": "in vivo"}, "[10]": {"test_system": "Rattus norvegicus", "experiment": "Oral bioavailability in Wistar rat assessed as 2-(4-(3,3-Difluoropyrrolidin-1-yl)phenyl)-5,7-difluoro-3-methylquinolin-4(1H)-one at 10 mg/kg administered via gavage after 24 hrs by LC-MS/MS analysis", "type": "ADME, organism-based", "details": "in vivo"}, "[11]": {"test_system": "Rattus norvegicus", "experiment": "Half life in Wistar rat assessed as 2-(4-(3,3-Difluoropyrrolidin-1-yl)phenyl)-5,7-difluoro-3-methylquinolin-4(1H)-one at 50 mg/kg administered via oral gavage after 24 hrs by LC-MS/MS analysis", "type": "ADME, organism-based", "details": "in vivo"}, "[12]": {"test_system": "Rattus norvegicus", "experiment": "Cmax in Wistar rat assessed as 2-(4-(3,3-Difluoropyrrolidin-1-yl)phenyl)-5,7-difluoro-3-methylquinolin-4(1H)-one at 50 mg/kg administered via oral gavage after 24 hrs by LC-MS/MS analysis", "type": "ADME, organism-based", "parameters": "dose 50 mg/kg, route oral", "details": "in vivo"}, "[13]": {"test_system": "Rattus norvegicus", "experiment": "AUC in Wistar rat assessed as 2-(4-(3,3-Difluoropyrrolidin-1-yl)phenyl)-5,7-difluoro-3-methylquinolin-4(1H)-one at 50 mg/kg administered via oral gavage after 24 hrs by LC-MS/MS analysis", "type": "ADME, organism-based", "parameters": "dose 50 mg/kg, time < 24 hr, route oral", "details": "in vivo"}, "[14]": {"test_system": "Rattus norvegicus", "experiment": "Oral bioavailability in Wistar rat assessed as 2-(4-(3,3-Difluoropyrrolidin-1-yl)phenyl)-5,7-difluoro-3-methylquinolin-4(1H)-one at 50 mg/kg administered via gavage after 24 hrs by LC-MS/MS analysis", "type": "ADME, organism-based", "details": "in vivo"}, "[15]": {"experiment": "AUC in Wistar rat at 10 mg/kg administered via oral gavage after 24 hrs by LC-MS/MS analysis", "type": "ADME, organism-based", "parameters": "dose 10 mg/kg, time < 24 hr, route oral", "details": "in vivo"}, "[16]": {"experiment": "Oral bioavailability in Wistar rat at 10 mg/kg administered via gavage after 24 hrs by LC-MS/MS analysis", "type": "ADME, organism-based", "details": "in vivo"}, "[17]": {"experiment": "Half life in Wistar rat at 50 mg/kg administered via oral gavage after 24 hrs by LC-MS/MS analysis", "type": "ADME, organism-based", "details": "in vivo"}, "[18]": {"experiment": "Cmax in Wistar rat at 50 mg/kg administered via oral gavage after 24 hrs by LC-MS/MS analysis", "type": "ADME, organism-based", "parameters": "dose 50 mg/kg, route oral", "details": "in vivo"}, "[19]": {"experiment": "AUC in Wistar rat at 50 mg/kg administered via oral gavage after 24 hrs by LC-MS/MS analysis", "type": "ADME, organism-based", "parameters": "time < 24 hr, dose 50 mg/kg, route oral", "details": "in vivo"}, "[20]": {"experiment": "Oral bioavailability in Wistar rat at 50 mg/kg administered via gavage after 24 hrs by LC-MS/MS analysis", "type": "ADME, organism-based", "details": "in vivo"}, "[21]": {"experiment": "Drug metabolism in Sprague-Dawley rat assessed as M1 metabolite formation in bile at 50 mg/kg, po via gavage up to 9 hrs by HPLC analysis", "type": "ADME, organism-based", "details": "in vivo"}, "[22]": {"experiment": "Drug metabolism in Sprague-Dawley rat assessed as M2 metabolite formation in bile at 50 mg/kg, po via gavage up to 9 hrs by HPLC analysis", "type": "ADME, organism-based", "details": "in vivo"}, "[23]": {"experiment": "Drug metabolism in Sprague-Dawley rat assessed as M3 metabolite formation in bile at 50 mg/kg, po via gavage up to 9 hrs by HPLC analysis", "type": "ADME, organism-based", "details": "in vivo"}, "[24]": {"experiment": "Drug metabolism in Sprague-Dawley rat assessed as M3 metabolite formation in urine at 50 mg/kg, po via gavage up to 9 hrs by HPLC analysis", "type": "ADME, organism-based", "details": "in vivo"}, "[25]": {"experiment": "Drug metabolism in Sprague-Dawley rat assessed as 2-(4-(3,3-difluoro-4-hydroxypyrrolidin-1-yl)phenyl)-5,7-difluoro-3-methylquinolin-4(1H)-one metabolite formation in urine at 50 mg/kg, po via gavage up to 9 hrs by HPLC analysis", "type": "ADME, organism-based", "details": "in vivo"}, "[26]": {"experiment": "Drug metabolism in Sprague-Dawley rat assessed as 2-(4-(3,3-difluoro-4-hydroxypyrrolidin-1-yl)phenyl)-5,7-difluoro-3-methylquinolin-4(1H)-one metabolite formation in bile at 50 mg/kg, po via gavage up to 9 hrs by HPLC analysis", "type": "ADME, organism-based", "details": "in vivo"}, "[27]": {"experiment": "Prodrug activation in Sprague-Dawley rat assessed as 2-(4-(3,3-difluoropyrrolidin-1-yl)phenyl)-5,7-difluoro-3-methylquinolin-4(1H)-one formation in urine at 50 mg/kg, po via gavage up to 9 hrs by HPLC analysis", "type": "organism-based", "details": "in vivo"}, "[28]": {"experiment": "Prodrug activation in Sprague-Dawley rat assessed as 2-(4-(3,3-difluoropyrrolidin-1-yl)phenyl)-5,7-difluoro-3-methylquinolin-4(1H)-one formation in bile at 50 mg/kg, po via gavage up to 9 hrs by HPLC analysis", "type": "organism-based", "details": "in vivo"}, "[29]": {"experiment": "Retention time of compound by HPLC anlaysis"}}, "data": [{"smiles": "CC(=O)Oc1c(C)c(-c2ccc(N3CCC(F)(F)C3)cc2)nc2cc(F)cc(F)c12", "values": [{"measurement": "t1/2", "setting": "[1]", "value": 1.48, "unit": "h"}, {"measurement": "CL", "setting": "[2]", "value": 8.73, "unit": "mL/min/kg"}, {"measurement": "Vdss", "setting": "[3]", "value": 0.291, "unit": "L/kg"}, {"measurement": "half-life", "setting": "[4]", "value": 3.9, "unit": "h"}, {"measurement": "Cmax", "setting": "[5]", "value": 1700, "unit": "ng/mL"}, {"measurement": "AUC", "setting": "[6]", "value": 964, "unit": "ng·h/mL"}, {"measurement": "t1/2", "setting": "[7]", "value": 3.8, "unit": "h"}, {"measurement": "Cmax", "setting": "[8]", "value": 610, "unit": "ng/mL"}, {"measurement": "AUC", "setting": "[9]", "value": 5400, "unit": "ng·h/mL"}, {"measurement": "F", "setting": "[10]", "value": 28, "unit": "%"}, {"measurement": "t1/2", "setting": "[11]", "value": 4.2, "unit": "h"}, {"measurement": "Cmax", "setting": "[12]", "value": 1400, "unit": "ng/mL"}, {"measurement": "AUC", "setting": "[13]", "value": 16500, "unit": "ng·h/mL"}, {"measurement": "F", "setting": "[14]", "value": 17.1, "unit": "%"}, {"measurement": "AUC at 24 h", "setting": "[15]", "value": 12300, "unit": "ng·h/mL"}, {"measurement": "bioavailability", "setting": "[16]", "value": 63.8, "unit": "%"}, {"measurement": "half-life", "setting": "[17]", "value": 2.3, "unit": "h"}, {"measurement": "Cmax", "setting": "[18]", "value": 4000, "unit": "ng/mL"}, {"measurement": "AUC at 24 h", "setting": "[19]", "value": 29600, "unit": "ng·h/mL"}, {"measurement": "bioavailability", "setting": "[20]", "value": 30.7, "unit": "%"}, {"measurement": "Drug metabolism", "setting": "[21]", "value": "Metabolite_Detected"}, {"measurement": "Drug metabolism", "setting": "[22]", "value": "Metabolite_Detected"}, {"measurement": "Drug metabolism", "setting": "[23]", "value": "Metabolite_Detected"}, {"measurement": "Drug metabolism", "setting": "[24]", "value": "Metabolite_Detected"}, {"measurement": "Drug metabolism", "setting": "[25]", "value": "Metabolite_Detected"}, {"measurement": "Drug metabolism", "setting": "[26]", "value": "Metabolite_Detected"}, {"measurement": "Drug metabolism", "setting": "[27]", "value": "Metabolite_Detected"}, {"measurement": "Drug metabolism", "setting": "[28]", "value": "Metabolite_Detected"}, {"measurement": "Retention time", "setting": "[29]", "value": 14.3, "unit": "min"}]}]}
